Article PMC7493219 (Journal of Crohn's & Colitis, 2020)
Where two headings read alike, the source gives them in different places.

Key:
[1] = test system: IL-13-potentiated IL-8 production in HT-29 cells; experiment: HT-29 IL-13/IL-8 assay; format: cell-based; details: Homo sapiens, HT-29, read-out: Mean ± SD inhibitory potency [pIC50], IL-13/IL-8 (converted)
[2] = test system: splenic NK, T and B cells; experiment: Splenocyte studies; format: in vivo, Balb/C mice; details: 3 days
[3] = test system: pSTAT3 in colonic mucosa; experiment: Target engagement in the oxazolone colitis model; format: in vivo, Balb/C mice; details: oral 30 mg/kg BID; for T cell infiltration into the colonic mucosa: oxazolone-treated mice
[4] = test system: oxazolone-induced colitis; experiment: Oxazolone-induced colitis model; format: in vivo, Balb/C mice; details: for effects of oxazolone (DAI and subscores): highest dose tested, 30 mg/kg
[5] = test system: GM-CSF-induced pSTAT5 in THP-1 cells; experiment: THP-1 GM-CSF/pSTAT5 assay; format: cell-based; details: Homo sapiens, THP-1, read-out: Mean ± SD inhibitory potency [pIC50], GM-CSF/pSTAT5 (converted)
[6] = test system: IL-6-induced pSTAT3 in THP-1 cells; experiment: THP-1 IL-6/pSTAT3 assay; format: cell-based; details: Homo sapiens, THP-1, read-out: Mean ± SD inhibitory potency [pIC50], IL-6/pSTAT3 (converted)
[7] = test system: IL-4-induced pSTAT6 in THP-1 cells; experiment: THP-1 IL-4/pSTAT6 assay; format: cell-based; details: Homo sapiens, THP-1, read-out: Mean ± SD inhibitory potency [pIC50], IL-4/pSTAT6 (converted)
[8] = molecular target: mouse recombinant JAK1 (Mus musculus, UniProt P52332); experiment: LanthaScreen kinase assay; format: biochemical
[9] = test system: GM-CSF-induced pSTAT5 in human whole blood; experiment: Human whole blood GM-CSF/pSTAT5 assay; format: cell-based; details: read-out: Mean ± SD inhibitory potency [pIC50], GM-CSF/pSTAT5 (converted)
[10] = FTIH SAD/MAD study, safety and tolerability in healthy subjects; format: in vivo, human; details: single dose up to 1000 mg, daily doses up to 300 mg for 14 days
[11] = test system: IL-13-induced pSTAT6 in HT-29 cells; experiment: HT-29 IL-13/pSTAT6 assay; format: cell-based; details: Homo sapiens, HT-29, read-out: Mean ± SD inhibitory potency [pIC50], IL-13/pSTAT6 (converted)
[12] = molecular target: human recombinant TYK2 (Homo sapiens, UniProt P29597); experiment: LanthaScreen kinase assay; format: biochemical
[13] = test system: moderately to severely active UC; experiment: Phase 1b study, efficacy assessments; format: in vivo, human; details: after the 28-day treatment, all doses
[14] = clinical; details: human, in vivo
[15] = test system: IL-6-induced pSTAT1 in Balb/C mouse primary colonic epithelial cells; experiment: Mouse colonic epithelial cell IL-6/pSTAT1 assay; format: cell-based; details: from Table 1 pIC50
[16] = Oral pharmacokinetics in mice; details: for concentration at 24 h / Cmax: male, Balb/C, mouse, in vivo, 10 mg/kg; for Cmax: po
[17] = Phase 1b study, safety and tolerability in UC patients; format: in vivo, human; details: 20, 80, 270 mg QD 28 days

Chain of mouse recombinant JAK1 (P52332 whole entry): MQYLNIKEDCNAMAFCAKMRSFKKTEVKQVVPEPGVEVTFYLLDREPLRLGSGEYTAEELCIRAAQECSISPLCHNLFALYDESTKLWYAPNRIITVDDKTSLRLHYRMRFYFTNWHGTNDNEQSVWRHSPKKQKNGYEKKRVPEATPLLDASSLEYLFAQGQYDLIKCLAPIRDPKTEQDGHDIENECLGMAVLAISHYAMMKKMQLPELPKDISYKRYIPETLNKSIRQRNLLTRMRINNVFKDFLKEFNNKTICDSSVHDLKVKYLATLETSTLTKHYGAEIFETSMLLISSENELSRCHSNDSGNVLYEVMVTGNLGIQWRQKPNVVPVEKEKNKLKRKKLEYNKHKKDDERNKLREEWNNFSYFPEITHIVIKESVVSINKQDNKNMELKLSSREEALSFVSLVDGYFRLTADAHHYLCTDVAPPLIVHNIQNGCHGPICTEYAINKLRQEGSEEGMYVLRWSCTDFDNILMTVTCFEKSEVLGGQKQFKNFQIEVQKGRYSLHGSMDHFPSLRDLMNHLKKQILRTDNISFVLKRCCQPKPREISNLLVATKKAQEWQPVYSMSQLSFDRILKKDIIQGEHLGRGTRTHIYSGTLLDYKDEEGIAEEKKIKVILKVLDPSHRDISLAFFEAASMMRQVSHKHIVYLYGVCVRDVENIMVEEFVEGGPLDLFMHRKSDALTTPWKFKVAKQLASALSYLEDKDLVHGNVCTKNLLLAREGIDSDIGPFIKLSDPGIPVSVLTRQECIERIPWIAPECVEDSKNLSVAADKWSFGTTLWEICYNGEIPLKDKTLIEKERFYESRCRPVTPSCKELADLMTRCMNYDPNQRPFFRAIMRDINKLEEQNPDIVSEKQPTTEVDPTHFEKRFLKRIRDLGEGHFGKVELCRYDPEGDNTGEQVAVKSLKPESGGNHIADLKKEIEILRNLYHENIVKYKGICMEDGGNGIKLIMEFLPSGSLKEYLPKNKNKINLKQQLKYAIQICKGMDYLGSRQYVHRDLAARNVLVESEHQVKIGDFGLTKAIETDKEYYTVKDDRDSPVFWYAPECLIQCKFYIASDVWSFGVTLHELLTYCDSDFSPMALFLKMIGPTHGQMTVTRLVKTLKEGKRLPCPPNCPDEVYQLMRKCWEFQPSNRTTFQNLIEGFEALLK
Chain of human recombinant TYK2 (P29597 whole entry): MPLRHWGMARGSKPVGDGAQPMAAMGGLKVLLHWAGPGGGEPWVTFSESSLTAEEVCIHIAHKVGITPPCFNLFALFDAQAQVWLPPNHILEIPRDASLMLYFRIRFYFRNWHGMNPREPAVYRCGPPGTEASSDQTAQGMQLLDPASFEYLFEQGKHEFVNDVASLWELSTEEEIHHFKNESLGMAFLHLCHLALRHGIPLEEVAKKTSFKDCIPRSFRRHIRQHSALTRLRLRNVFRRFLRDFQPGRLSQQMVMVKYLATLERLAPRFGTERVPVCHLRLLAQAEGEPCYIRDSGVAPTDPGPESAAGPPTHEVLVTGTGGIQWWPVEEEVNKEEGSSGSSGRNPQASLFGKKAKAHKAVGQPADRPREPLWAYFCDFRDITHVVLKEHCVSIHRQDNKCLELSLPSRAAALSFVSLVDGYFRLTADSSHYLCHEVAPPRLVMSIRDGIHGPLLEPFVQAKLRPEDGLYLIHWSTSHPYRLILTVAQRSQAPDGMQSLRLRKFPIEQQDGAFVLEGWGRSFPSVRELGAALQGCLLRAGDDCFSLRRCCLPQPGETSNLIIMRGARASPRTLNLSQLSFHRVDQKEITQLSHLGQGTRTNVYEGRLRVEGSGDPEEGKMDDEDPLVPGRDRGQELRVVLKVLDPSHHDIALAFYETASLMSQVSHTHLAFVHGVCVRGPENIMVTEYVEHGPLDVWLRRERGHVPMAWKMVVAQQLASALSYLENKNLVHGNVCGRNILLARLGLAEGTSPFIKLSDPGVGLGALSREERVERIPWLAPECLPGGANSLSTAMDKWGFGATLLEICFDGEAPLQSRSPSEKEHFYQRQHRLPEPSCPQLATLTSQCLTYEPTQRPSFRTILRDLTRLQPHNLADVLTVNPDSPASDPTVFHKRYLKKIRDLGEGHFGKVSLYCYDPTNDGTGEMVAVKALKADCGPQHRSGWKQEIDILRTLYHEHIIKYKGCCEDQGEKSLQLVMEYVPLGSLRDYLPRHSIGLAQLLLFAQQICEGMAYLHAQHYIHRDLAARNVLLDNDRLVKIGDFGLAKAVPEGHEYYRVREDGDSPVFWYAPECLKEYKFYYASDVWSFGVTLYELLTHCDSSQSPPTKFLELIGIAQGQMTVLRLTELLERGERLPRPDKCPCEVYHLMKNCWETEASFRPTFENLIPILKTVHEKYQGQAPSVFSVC

Cc1cc(Nc2cc3ncccc3c(N[C@@H]3C[C@H]4CC[C@@H](C3)N4CCC#N)n2)n[nH]1 [TD-1473]
IC50 [1]: 79.4 nM
numbers of splenic NK, B or T cells vs vehicle ([2]; oral 1, 10 and 100 mg/kg BID): did not affect
T cell infiltration into the colonic mucosa ([3]; 30 mg/kg): preventing T cell infiltration
pSTAT3 levels in colonic mucosa of oxazolone-treated mice vs vehicle ([3]; 30 mg/kg): significantly inhibited
effects of oxazolone (DAI and subscores) [4]: did not significantly attenuate
oxazolone-induced elevated DAI, reduction in body weight and stool consistency, increase in stool blood content ([4]; oral 0.3–10 mg/kg BID): attenuated
IC50 [5]: 100 nM
IC50 [6]: 50.1 nM
IC50 [7]: 31.6 nM
Ki [8]: 0.0631 nM
IC50 [9]: 200 nM
tolerability [10]: generally well tolerated
colonic tissue concentration, geometric mean [95% CI] (20 mg QD, day 28): 4090 [2270–7380] pg/g
geometric mean colonic tissue concentration [average of sigmoid and rectum] (20 mg QD, day 28): 4090 pg/mL
patients with plasma trough concentration BLQ (20 mg, day 14): 4/9
geometric mean colonic tissue concentration [average of sigmoid and rectum] (80 mg QD, day 28): 65 300 pg/mL
geometric mean trough concentration as % of Cmax (80 mg, day 14): 3.57%
geometric mean colonic tissue concentration [average of sigmoid and rectum] (270 mg QD, day 28): 43 500 pg/mL
geometric mean trough concentration as % of Cmax (270 mg, day 14): 5.79%
IC50 [11]: 79.4 nM
stronger potency for TYK2 compared with tofacitinib [12]: approximately 40 fold
clinical remission [13]: No patient achieved clinical remission
Tmax [14]: ~1 h
mouse colonic epithelial IL-6/pSTAT1 IC50 [15]: 0.020 µg/g
concentration at 24 h [16]: < 0.25 nM
Cmax ([16]; colon, 10 mg/kg oral): 3690 ng/g
Cmax ([16]; plasma, 10 mg/kg oral): 0.0014 µg/mL
TEAE incidence, TD-1473 treatment arms overall [17]: 38.7%
laboratory parameters (haematological, renal, hepatic, creatinine phosphokinase, lipid) [17]: did not adversely affect
tolerability [17]: generally well tolerated

C[C@@H]1CCN(C(=O)CC#N)C[C@@H]1N(C)c1ncnc2[nH]ccc12 [tofacitinib, reference compound]
splenic T and B cell numbers ([2]; oral 10, 15 and 30 mg/kg TID): did not affect
T cell infiltration into the colonic mucosa [3]: preventing T cell infiltration
pSTAT3 levels in colonic mucosa of oxazolone-treated mice vs vehicle ([3]; 30 mg/kg): significantly inhibited
effects of oxazolone (DAI and subscores) [4]: did not significantly attenuate
oxazolone-induced elevated DAI, reduction in body weight and stool consistency, increase in stool blood content ([4]; oral 10 and 15 mg/kg TID): attenuated
colonic level 24 h postdose (BLQ) ([16]; 10 mg/kg oral): < 0.00025 µM
concentration at 24 h [16]: < 0.25 nM
Cmax ([16]; colon, 10 mg/kg oral): 2.57 µg/mL
Cmax ([16]; plasma, 10 mg/kg oral): 0.193 µg/mL
